Consider 12 compounds from patent publication US20260273072A1, “NOVEL PLK1 DEGRADATION INDUCING COMPOUND” (UPPTHERA, INC., priority 2023, published 2026).

What all share (format): cell-based
The target in assay [1] is T1, PLK1 (Homo sapiens, UniProt P53350).
T1 construct: endogenous in cells; host or cells: HeLa LgBit (Plk1-HiBit KI): HeLa stably expressing LgBit, with a CRISPR/Cas9 knock-in of HiBit at the endogenous PLK1 locus
The assay can be described thus: Luciferase assay for PLK1 in HeLa LgBit (Plk1-HiBit KI) cell line. The settings on record: 300 nM compound, luminescence after 9 hours. An outline of the steps:
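HeLa LgBit cells with endogenous PLK1 C-terminally HiBit-tagged by CRISPR knock-in; released from 24 h 2 mM thymidine block, seeded, grown 18 h. Compounds at 300 nM with Endurazine substrate; luminescence (470-480 nm) tracked in real time, expressed as ratio to DMSO.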

The subject of assay [2] is NCI-H526 cell line. The assay can be described thus: Cell viability assay for NCI-H526 cell line (EZ-Cytox). The settings on record: Homo sapiens, NCI-H526, 120 h; H526 cells, 5 days, 3000 nM to 0.46 nM. An outline of the steps:
(§1)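 Human SCLC lines cultured with compound for 5 days in a CO2 incubator; viability read by EZ-Cytox absorbance at 450 nm after 3 min shaking. IC50 reported in activity bins (A: <30 nM up to E: <400 nM).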

Assay [3] concerns NCI-H69 cell line. The assay can be described thus: Cell viability assay for NCI-H69 cell line (EZ-Cytox). As to conditions: Homo sapiens, NCI-H69, 120 h; H69 cells, 5 days, 3000 nM to 0.46 nM. Summed up: as §1
Assay [4] has as its system MRC-5 cell line. The assay can be described thus: Cell viability assay for MRC-5 cell line (EZ-Cytox). The settings on record: Homo sapiens, MRC5, 120 h; MRC-5 normal cell line, 5 days, 10000 nM to 1.52 nM; read-out: Activity: IC50 value, cell viability, MRC-5 cell line (Exemplary Compounds). As for the experimental part: 4. Cell Viability Assay for MRC-5 Cell Line
(1) Culture of MRC-5 Cell Line
The MRC-5 cell line was purchased from KCLB. Passage of cultured cells was maintained within P15.
(2) Treatment of Compounds of the Present Invention
Then, it was cultured in 37° C. CO2 incubator (Thermo Fisher Scientific) for 5 days.
(3) Cytotoxicity Experiment
CO2 incubator for 4 hours.

The structures appear in SMILES notation. Where only a bound is given, the exact number is not on record here.

T1 sequence (P53350 whole entry): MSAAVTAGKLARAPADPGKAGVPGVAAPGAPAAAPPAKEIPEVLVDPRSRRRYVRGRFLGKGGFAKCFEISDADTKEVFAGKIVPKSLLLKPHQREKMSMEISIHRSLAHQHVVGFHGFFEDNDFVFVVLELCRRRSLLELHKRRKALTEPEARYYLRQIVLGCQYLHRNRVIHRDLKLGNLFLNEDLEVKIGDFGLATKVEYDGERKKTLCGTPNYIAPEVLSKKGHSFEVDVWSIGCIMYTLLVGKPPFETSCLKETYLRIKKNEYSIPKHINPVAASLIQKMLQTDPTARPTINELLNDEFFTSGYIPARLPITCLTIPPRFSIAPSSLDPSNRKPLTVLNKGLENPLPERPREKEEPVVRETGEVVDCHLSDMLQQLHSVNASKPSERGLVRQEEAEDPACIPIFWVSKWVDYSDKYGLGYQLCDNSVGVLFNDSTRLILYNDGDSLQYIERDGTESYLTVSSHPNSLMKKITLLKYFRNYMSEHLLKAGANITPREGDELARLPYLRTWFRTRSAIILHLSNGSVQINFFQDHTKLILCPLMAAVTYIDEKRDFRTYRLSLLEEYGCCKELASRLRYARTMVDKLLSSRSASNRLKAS

For `COc1cc(C(=O)N[C@H]2[C@@H]3CN(CCN4CCN(c5ccc(NC6CCC(=O)NC6=O)cc5)CC4)C[C@@H]32)ccc1Nc1ncc2c(n1)N(C(C)C)CC(F)(F)C(=O)N2C` (stereo partly drawn) [Compound 23, 4-((7,7-difluoro-9-isopropyl-5-methyl-6-oxo-6,7,8,9-tetrahydro-5H-pyrimido[4,5-b][1,4]diazepin-2-yl)amino)-N-((1R,5S,6s)-3-(2-(4-(4-((2,6-dioxopiperidin-3-yl)amino)phenyl)piperazin-1-yl)ethyl)-3-azabicyclo[3.1.0]hexan-6-yl)-3-methoxybenzamide], the “Activity: ratio of the luminescence value of compound treatment group to DMSO treatment group” value (“Activity: ratio” below) in assay [1] is “++ (++: <0.5)”. Further, the half-maximal inhibitory concentration (IC50) (in general, the concentration that inhibits the measured activity by half) in assay [2] was under 0.03 µM; in assay [3], under 0.05 µM; in assay [4], over 10 µM.

With `COc1cc(C(=O)N[C@H]2[C@@H]3CN(CCC4CCN(c5ccc(NC6CCC(=O)NC6=O)cc5)CC4)C[C@@H]32)ccc1Nc1ncc2c(n1)N(C(C)C)CC(F)(F)C(=O)N2C` (stereo partly drawn) [Compound 24, 4-((7,7-difluoro-9-isopropyl-5-methyl-6-oxo-6,7,8,9-tetrahydro-5H-pyrimido[4,5-b][1,4]diazepin-2-yl)amino)-N-((1R,5S,6s)-3-(2-(1-(4-((2,6-dioxopiperidin-3-yl)amino)phenyl)piperidin-4-yl)ethyl)-3-azabicyclo[3.1.0]hexan-6-yl)-3-methoxybenzamide], the “Activity: ratio” value in assay [1] is reported as “++ (++: <0.5)”. The IC50 in assay [2] is under 0.05 µM; in assay [3] it was under 0.1 µM; in assay [4] it was over 10 µM.

For the compound `COc1cc(C(=O)NN2C[C@@H]3[C@@H](CCN4CCN(c5ccc(NC6CCC(=O)NC6=O)cc5)CC4)[C@@H]3C2)ccc1Nc1ncc2c(n1)N(C(C)C)CC(F)(F)C(=O)N2C` (stereo partly drawn) [Compound 25, 4-((7,7-difluoro-9-isopropyl-5-methyl-6-oxo-6,7,8,9-tetrahydro-5H-pyrimido[4,5-b][1,4]diazepin-2-yl)amino)-N-((1R,5S,6s)-6-(2-(4-(4-((2,6-dioxopiperidin-3-yl)amino)phenyl)piperazin-1-yl)ethyl)-3-azabicyclo[3.1.0]hexan-3-yl)-3-methoxybenzamide], in assay [1], the “Activity: ratio” value was “++ (++: <0.5)”. Moreover, the 50% inhibitory concentration (IC50) in assay [2] is under 0.03 µM; in assay [3], under 0.1 µM; in assay [4], over 10 µM.

With `COc1cc(C(=O)NC2CCC(N(C)CC3CCN(c4ccc(NC5CCC(=O)NC5=O)cc4F)CC3)CC2)ccc1Nc1ncc2c(n1)N(C(C)C)CC(F)(F)C(=O)N2C` (stereo not drawn) [Compound 26, 4-((7,7-difluoro-9-isopropyl-5-methyl-6-oxo-6,7,8,9-tetrahydro-5H-pyrimido[4,5-b][1,4]diazepin-2-yl)amino)-N-((1r,4r)-4-(((1-(4-((2,6-dioxopiperidin-3-yl)amino)-2-fluorophenyl)piperidin-4-yl)methyl)(methyl)amino)cyclohexyl)-3-methoxybenzamide], the “Activity: ratio” value in assay [1] is on record as “++ (++: <0.5)”. The values for the IC50 in assay [2], in assay [3] and in assay [4] were under 0.03 µM, under 0.03 µM and over 10 µM, respectively.

In the case of `CCN1CC(F)(F)C(=O)N(C)c2cnc(Nc3ccc(C(=O)NC4CCC(N(C)CC5CCN(c6ccc(NC7CCC(=O)NC7=O)cc6F)CC5)CC4)cc3OC)nc21` (stereo not drawn) [Compound 27, N((1r,4r)-4-(((1-(4-((2,6-dioxopiperidin-3-yl)amino)-2-fluorophenyl)piperidin-4-yl)methyl)(methyl)amino)cyclohexyl)-4-((9-ethyl-7,7-difluoro-5-methyl-6-oxo-6,7,8,9-tetrahydro-5H-pyrimido[4,5-b][1,4]diazepin-2-yl)amino)-3-methoxybenzamide], in assay [1], the “Activity: ratio” value is “+++ (+++: <0.3)”. Also, the concentration for half-maximal inhibition (IC50) was under 0.03 µM in assay [2], under 0.03 µM in assay [3] and over 10 µM in assay [4].

`CCN1CC(F)(F)C(=O)N(C)c2cnc(Nc3ccc(C(=O)NN4CCC(CCN5CCN(c6ccc(NC7CCC(=O)NC7=O)cc6F)CC5)CC4)cc3OC)nc21` (stereo not drawn) [Compound 28, N(4-(2-(4-(4-((2,6-dioxopiperidin-3-yl)amino)-2-fluorophenyl)piperazin-1-yl)ethyl)piperidin-1-yl)-4-((9-ethyl-7,7-difluoro-5-methyl-6-oxo-6,7,8,9-tetrahydro-5H-pyrimido[4,5-b][1,4]diazepin-2-yl)amino)-3-methoxybenzamide]: in assay [1], the “Activity: ratio” value was “+++ (+++: <0.3)”. For the same compound, the concentration for half-maximal inhibition (IC50) in assay [2] is under 0.03 µM; in assay [3], under 0.03 µM; in assay [4] it was over 10 µM.

Consider `COc1cc(C(=O)NN2CCC(CCN3CCN(c4ccc(NC5CCC(=O)NC5=O)cc4F)CC3)CC2)ccc1Nc1ncc2c(n1)N(C(C)C)CC(F)(F)C(=O)N2C` (stereo not drawn) [Compound 29, 4-((7,7-difluoro-9-isopropyl-5-methyl-6-oxo-6,7,8,9-tetrahydro-5H-pyrimido[4,5-b][1,4]diazepin-2-yl)amino)-N-(4-(2-(4-(4-((2,6-dioxopiperidin-3-yl)amino)-2-fluorophenyl)piperazin-1-yl)ethyl)piperidin-1-yl)-3-methoxybenzamide], for which the “Activity: ratio” value in assay [1] is listed as “+++ (+++: <0.3)”. Moreover, the concentration for half-maximal inhibition (IC50) in assay [2] was under 0.03 µM; in assay [3], under 0.03 µM; in assay [4], over 10 µM.

Take `COc1cc(C(=O)NC2CCN(CCC3CCN(c4ccc(NC5CCC(=O)NC5=O)cc4F)CC3)CC2)ccc1Nc1ncc2c(n1)N(C1CCCC1)CC(F)(F)C(=O)N2C` (stereo not drawn) [Compound 30, 4-((9-cyclopentyl-7,7-difluoro-5-methyl-6-oxo-6,7,8,9-tetrahydro-5H-pyrimido[4,5-b][1,4]diazepin-2-yl)amino)-N-(1-(2-(1-(4-((2,6-dioxopiperidin-3-yl)amino)-2-fluorophenyl)piperidin-4-yl)ethyl)piperidin-4-yl)-3-methoxybenzamide]: the “Activity: ratio” value in assay [1] is reported as “+++ (+++: <0.3)”. Also, the values for the half-inhibitory concentration (IC50) in assay [2], in assay [3] and in assay [4] were under 0.03 µM, under 0.03 µM and over 10 µM, respectively.

As for `COc1cc(C(=O)NC2CCN(CCN3CCN(c4ccc(NC5CCC(=O)NC5=O)c(F)c4)CC3)CC2)ccc1Nc1ncc2c(n1)N(C1CCCC1)CC(F)(F)C(=O)N2C` (stereo not drawn) [Compound 32, 4-((9-cyclopentyl-7,7-difluoro-5-methyl-6-oxo-6,7,8,9-tetrahydro-5H-pyrimido[4,5-b][1,4]diazepin-2-yl)amino)-N-(1-(2-(4-(4-((2,6-dioxopiperidin-3-yl)amino)-3-fluorophenyl)piperazin-1-yl)ethyl)piperidin-4-yl)-3-methoxybenzamide], the “Activity: ratio” value in assay [1] is recorded as “++ (++: <0.5)”. The IC50 in assay [2] was under 0.03 µM; in assay [3], under 0.03 µM; in assay [4] it was over 10 µM.

As for `COc1cc(C(=O)NN2CCC(CCN3CCN(c4ccc(NC5CCC(=O)NC5=O)c(F)c4)CC3)CC2)ccc1Nc1ncc2c(n1)N(C(C)C)CC(F)(F)C(=O)N2C` (stereo not drawn) [Compound 33, 4-((7,7-difluoro-9-isopropyl-5-methyl-6-oxo-6,7,8,9-tetrahydro-5H-pyrimido[4,5-b][1,4]diazepin-2-yl)amino)-N-(4-(2-(4-(4-((2,6-dioxopiperidin-3-yl)amino)-3-fluorophenyl)piperazin-1-yl)ethyl)piperidin-1-yl)-3-methoxybenzamide], the “Activity: ratio” value in assay [1] was “++ (++: <0.5)”. For the same compound, the results for the IC50 in assay [2], in assay [3] and in assay [4] were under 0.03 µM, under 0.03 µM and over 10 µM, respectively.

Regarding `COc1cc(C(=O)NN2CCC(CCN3CCN(c4ccc(NC5CCC(=O)NC5=O)c(F)c4)CC3)CC2)ccc1Nc1ncc2c(n1)N(C1CCCC1)CC(F)(F)C(=O)N2C` (stereo not drawn) [Compound 34, 4-((9-cyclopentyl-7,7-difluoro-5-methyl-6-oxo-6,7,8,9-tetrahydro-5H-pyrimido[4,5-b][1,4]diazepin-2-yl)amino)-N-(4-(2-(4-(4-((2,6-dioxopiperidin-3-yl)amino)-3-fluorophenyl)piperazin-1-yl)ethyl)piperidin-1-yl)-3-methoxybenzamide], the “Activity: ratio” value in assay [1] was “++ (++: <0.5)”. Further, the half-maximal inhibitory concentration (IC50) was under 0.03 µM in assay [2], under 0.03 µM in assay [3] and over 10 µM in assay [4].

Regarding `CCN1CC(F)(F)C(=O)N(C)c2cnc(Nc3cc(F)c(C(=O)NN4CCC(CCN5CCN(c6ccc(NC7CCC(=O)NC7=O)c(F)c6)CC5)CC4)cc3OC)nc21` (stereo not drawn) [Compound 35, N(4-(2-(4-(4-((2,6-dioxopiperidin-3-yl)amino)-3-fluorophenyl)piperazin-1-yl)ethyl)piperidin-1-yl)-4-((9-ethyl-7,7-difluoro-5-methyl-6-oxo-6,7,8,9-tetrahydro-5H-pyrimido[4,5-b][1,4]diazepin-2-yl)amino)-2-fluoro-5-methoxybenzamide], the “Activity: ratio” value in assay [1] is reported as “++ (++: <0.5)”. The figures for the concentration for half-maximal inhibition (IC50) in assay [2], in assay [3] and in assay [4] were under 0.03 µM, under 0.05 µM and over 10 µM, respectively.
